From patent publication US20020169123A1, “Regulating apoptosis in TRAIL-resistant cancer cells, while protecting normal, non-cancerous cells” (THE TRUSTEES OF THE UNIVERSITY OF PENNSYLVANIA, priority 2001, published 2002) come the findings set out here.

In data set [1] the test system is TRAIL-resistant HCE4 cell line. Kind of data set: time course western blot of caspase activation and PARP cleavage. The note with it: only in CHX-pretreated HCE4 cells; 6 hours CHX pre-incubation. It is filed as cell-based, human. The protocol:
(§1) Western blot analysis was carried out as previously described (Meng et al., Clin. Cancer Res. 4:251-259 (1998)). Blotted membranes were immunostained with anti-DR4 (1:500; Pharmingen), anti-DR5 (1:500; IMGENEX, San Diego, Calif.), anti-DcR1 (1:500; Pharmingen), anti-DcR2 (1:500; Pharmingen), anti-FADD (Clone IF7, 1:2000; Upstate Biotechnology, Lake Placid, N.Y.), anti-caspase 8 (Clone 5F7, 1:1000; Upstate Biotechnology), anti-FLIP (Clone Dave-2, 1:1000; Alexis Biochemicals, San Diego, Calif.), anti-Bid (1:500; Pharmingen), anti-Bax (1:500, Pharmingen), anti Bcl-2 (Bcl-2/100, 1:500; Pharmingen), anti-Bcl-xL (1:500; Pharmingen), anti-caspase 3 (E-8, 1:200; Santa Cruz, Santa Cruz, Calif.), anti-PARP (1:2000; Roche Diagnostics GmbH, Mannheim, Germany), anti-TRAIL (1:500; PeproTech Inc., Rocky Hill, N.J.), or anti-actin (I-19, 1:200; Santa Cruz).
A time course experiment was performed using the TRAIL-resistant HCE4 cell line. After 6 hours of pre-incubation in the presence or absence of CHX, the cells were exposed to TRAIL, then lysates were prepared and harvested at time points every 30 minutes after the addition of TRAIL, up to 4 hrs by adding 1× SDS loading buffer. The timed lysates were subjected to 10 or 12% SDS-PAGE, and then immunoblotted and stained with the indicated antibodies (FIG. 3). […]
A general note: A western blot detects proteins with antibodies after separation by electrophoresis.

Data set [2] deals with TE9 cells. Kind of data set: DISC IP analysis, recruitment of caspase 8 into DISC. Particulars: CHX-pre-treated vs control. It is filed as cell-based, human. The protocol:
(§2) To perform the DISC analysis, cells were grown, harvested and re-suspended in 2 mL of DMEM (1.5×10^7 cells/mL). TRAIL (500 ng/mL final concentration) and anti-6× His antibody (2.5 μg/mL final concentration) were pre-mixed for 10 minutes on ice, then added to the re-suspended cells. The cells were treated with TRAIL for 20 minutes in a 37° C. water bath with intermittent agitation. TRAIL treatment was stopped by adding 5 mL of ice-cold PBS, followed by immediate centrifugation. […]
(§3) To the cleared lysate, 30 μL of protein A/G plus agarose beads (Santa Cruz) were added and incubated overnight in a cold room with continuous rocking. […] After centrifugation at the same condition, the precipitates were re-suspended in 1× SDS loading buffer and analyzed by 12% SDS-PAGE and western immunostaining.
(§4) In the control used to verify the DISC without TRAIL stimulation, the same amounts of TRAIL and antibody were added to the lysate after the cells were lysed with IP lysis buffer. Equal amounts of total cell lysates were also analyzed as an expression control. […]
(§5) FIGS. 3A and 3B depict an immunostained western blot showing the sensitization of TRAIL-resistant HCE4 cells to TRAIL resulting from CHX pre-treatment. […] Actin levels were measured as a control standard.

Data set [3] relates to HCE4 cells. The data set is described as above. It is filed as cell-based, human. Particulars: CHX-pre-treated vs control. The protocol: as §2, §3, §4, §5
For data set [4], the system named is esophageal cancer cell lines. Kind of data set: active-caspase 3 assay, TRAIL cytotoxicity on esophageal cancer cell lines. It is filed as cell-based, human. The protocol:
To assess TRAIL cytotoxicity on esophageal cancer cells, the active-caspase 3 assay was used. […] After 16 hours of the TRAIL treatment, the cells were harvested and the active-caspase 3 assay was performed as described in the Experimental Procedures above. In the case of CHX treatment, the cells were pre-treated with CHX (10 μg/mL final concentration) for 6 hours before the addition of TRAIL.
The protein synthesis inhibitor, cycloheximide (“CHX”), has been widely used with apoptosis-inducing ligands, such as FAS/FASL, TNF-α, or TRAIL, to induce cell death effectively. […] This is because previous observers have reported that over-expression of c-FLIP can interrupt the recruitment of caspase 8 into DISC, thereby preventing down stream activation of the caspase cascade (Wajant et al., J. Biol. Chem. 275:24357-24366 (2000)). It has also been reported that CHX might sensitize the cells to TRAIL by inhibiting a de novo synthesis of c-FLIP, thereby increasing the recruitment of caspase 8 into DISC (Fulda et al., Cancer Res. 60:3947-3956 (2000)), followed by activation of downstream apoptotic signaling cascade.

Data set [5] deals with EPC2. Kind of data set: mitochondrial transmembrane potential change. It is filed as cell-based, human. Particulars: data not shown.
Data set [6] has as its system EPC2 normal esophageal epithelial cells. The note with it: EPC2 cells.
Procedure: Normal human primary epithelial cells (EPC2, provided by Dr. Anil Rustgi, University of Pennsylvania) and primary human foreskin keratinocytes (HFK, provided by Dr. John C. Ansel, Emory University), were grown in Keratinocyte-SFM medium (Gibco BRL, Rockville, Md.) containing bovine pituitary extract (40 μg/mL) and epidermal growth factor (1 ng/mL). The primary epithelial cells were used at passage 4 or 5.
The N-terminal histidine (His) tagged recombinant human TRAIL (rhTRAIL, Thr-95 to Gly-281) was obtained from R&D Systems (Minneapolis, Minn.). A mouse monoclonal anti-6× His antibody (R&D Systems) was used for cross-linking the rhTRAIL. […] Cells were treated with TRAIL (50 ng/mL final concentration) and 1 μg/mL of anti-6× His (N-terrninal histidine antibody) for 4 hours or for 16 hours. The caspase inhibitor was used at a final concentration of 20 μM, and was added 2 hours prior to the addition of TRAIL. […] In the case of adriamycin, cells were pre-treated with adriamycin (0.5 μM final concentration) for 16 hours before the addition of TRAIL.
(§6) For detecting apoptosis mediated by TRAIL, an active-caspase 3 assay was performed using Cytofix/Cytoperm kit (Pharmingen, San Diego, Calif.), as previously described (Kim et al., Int. J. Oncol. 18:241-247 (2001)). Briefly, using standard techniques, 5×10^5 cells were seeded into a 6 well plate, after which, the cells were treated with TRAIL cross-linked with anti-6× His antibody. […] After washing, the cells were probed with 0.125 μg/μl of Phycoerythrin (PE)-conjugated goat anti-rabbit secondary antibody (Ab) (CALTAG Laboratories, Burlingame, Calif.) for 20 minutes in the dark. The intensity of PE was analyzed by flow cytometry using a Beckman-Coulter Epics Elite analyzer.
Data set [7] has as its system HCE4, TE3 and TE5 cells. Kind of data set: Bax translocation, cell fractionation and western blot. The note with it: cytoplasmic and heavy membrane fractions, western blot. It is filed as cell-based, human. Here is the method:
as §1
To prepare cytoplasmic fraction and mitochondria-rich heavy membrane fraction, cells were harvested, washed, and then re-suspended in RSB100 (10 mM Tris-HCl, pH 7.4, 2.5 mM MgCl2, 100 mM NaCl) containing 35 μg/mL digitonin (Calbiochem, San Diego, Calif.), and 1× complete protease inhibitor cocktail (Roche Diagnostics). After incubation on ice for 5 minutes, the cells were disrupted by passage through a 25G needle. […] Protein quantity was measured using Bio-Rad protein assay reagent (Bio-Rad, Hercules, Calif.). […]

The subject of data set [8] is HCE4, TE3 and TE5 cells. Kind of data set: mitochondrial transmembrane potential change, DiOC6 flow cytometry. Particulars: 0.5 μM adriamycin 16 hours; 100 nM DiOC6. It is filed as cell-based, human. Here is the method:
To detect any change of Δψm after treating cells with adriamycin, 3,3′-dihexyloxacarbocyanine iodide (DiOC6 (Pan et al., 1997)) were used. Briefly, 5×10^5 cells/well were seeded into a 6 well plate. After treatment with adriamycin, the cells were harvested, washed and re-suspended in complete media containing 100 nM DiOC6 (Pan et al., 1997) followed by 30 minutes incubation in a 37° C. water bath.
In addition to determine the potential mitochondrial membrane (Δψm) change after 16 hours of adriamycin (0.5 μM) pretreatment, the HCE4, TE3 and TE5 cells were incubated in the presence of 100 nM DiOC6 (Pan et al., 1997).

In data set [9] the test system is TRAIL-resistant HCE4, TE3, and TE5 cells. Kind of data set: active-caspase 3 assay, adriamycin plus TRAIL. It is filed as cell-based, human. Particulars: HCE4, TE3, TE5; 0.5 μM adriamycin 16 hours, then TRAIL 4 hours; no inhibitor.
Procedure: Cells were treated with TRAIL (50 ng/mL final concentration) and 1 μg/mL of anti-6× His (N-terrninal histidine antibody) for 4 hours or for 16 hours. The caspase inhibitor was used at a final concentration of 20 μM, and was added 2 hours prior to the addition of TRAIL. When the cells were treated with both cycloheximide (CHX) and TRAIL, CHX (10 μg/mL final concentration) was added 6 hours before the addition of TRAIL. In the case of adriamycin, cells were pre-treated with adriamycin (0.5 μM final concentration) for 16 hours before the addition of TRAIL.
as §6
Accordingly, adriamycin was tested to determine whether its combination with TRAIL could induce synergistic cell killing in TRAIL-resistant esophageal cancer cells. TRAIL-resistant HCE4, TE3, and TE5 cells were pre-treated with 0.5 μM adriamycin for 16 hours, followed by incubation for 4 hours in the presence of TRAIL. z-LEHD-FMK (20 μM final concentration) was added 2 hours before the addition of TRAIL. An active-caspase 3 assay was used to determine whether apoptosis occurred.
Next, z-LEHD-FMK was tested in the HCE4, TE3 and TE5 cells to determine the protective effect of z-LEHD-FMK, if any, on the synergistic cell death driven by the combination of adriamycin with TRAIL.
For data set [10], the system named is TE5 cells. Kind of data set: suppression of endogenous Bcl-xL by anti-sense morpholino, western blot and active-caspase 3 assay. It is filed as cell-based, human. Here is the method: Anti-sense Bcl-xL morpholino oligonucleotides (5′-[…]-3′) (SEQID NO:2) for suppressing expression of endogenous Bcl-xL in vivo, and fluorescein-labeled standard control oligonucleotides were purchased from Gene Tools, LLC (Corvallis, Oreg.). The scrape delivery method was used to deliver the oligonucleotides to the cells. Briefly, cells (1×10^6/well) were seeded into a 6-well culture plate, and after 16 hours of incubation, the medium was changed with 1 mL of fresh medium containing 20 μM morpholino oligonucleotides (chemically modified antisense oligonucleotides). Then, the cells were scraped out of the plates using a cell scraper (SARSTEDT, Newton, N.C.). After gently pipetting up and down twice, the cells were transferred to a new culture plate. After 48 hours of incubation, the cells were treated under the indicated conditions described in the corresponding figures for the example in which the cells were used. […] The effect is not seen in normal cells.
To confirm the effect of Bcl-xL on the synergistic cell killing, we introduced anti-sense Bcl-xL morpholino oligonucleotides (AS Bcl-xL) were introduced into TE5 cells. This was to determine the effect of suppression of the endogenous Bcl-xL in the TE5 cells. […]

The test system of data set [11] is HFK cells. Kind of data set: active-caspase 3 assay on foreskin keratinocytes. It is filed as cell-based, human. The note with it: increasing concentrations of TRAIL, 4 hours. An excerpt:
Experiments were done in duplicate (mean value±SD).

For data set [12], the system named is all cells, including cancer cells. Kind of data set: protection from the killing effect of TRAIL by caspase inhibitors. It is filed as cell-based. The note with it: stated without experimental detail.

Take `C[C@@H]1C[C@@H]([C@H](O)CC2CC(=O)NC(=O)C2)C(=O)[C@@H](C)C1` [CHX, cycloheximide]: in data set [1], the “onset of activation of caspase 8, Bid, caspase 9 and cleavage of PARP after TRAIL treatment” value is “approximately 1 hour”. Besides, the “amount of caspase 8 recruited into DISC after CHX pre-treatment” value in [2] is listed as “no increase”. Moreover, the “amount of caspase 8 in the DISC after CHX pre-treatment” value in data set [3] was “slight decrease”. For the same compound, in [4] (all cancer cell lines, CHX 10 μg/mL for 6 hours before TRAIL), the “sensitization to TRAIL by CHX pre-treatment” value is recorded as “became sensitized to TRAIL”.
Consider `COc1cccc2c1C(=O)c1c(O)c3c(c(O)c1C2=O)C[C@@](O)(C(=O)CO)C[C@@H]3O[C@H]1C[C@H](N)[C@H](O)[C@H](C)O1` [adriamycin, doxorubicin], for which the “drop of Δψm after adriamycin” value in data set [5] is reported as “did not induce drop of Δψm”. Also, in data set [6] (no inhibitor), the “cell killing by combination of TRAIL and adriamycin” value is recorded as “synergistically killed”. Moreover, the “Bax translocation from the cytosol to the mitochondria after adriamycin treatment” value in data set [7] is recorded as “only in the HCE4 cells”. The “drop of Δψm after adriamycin treatment” value in data set [8] is recorded as “a drop of Δψm was observed only in the HCE4 cells”. In data set [9], the “cell killing by combination of adriamycin and TRAIL” value is reported as “the effect was synergistic”.
As for “AS Bcl-xL: Anti-sense Bcl-xL morpholino oligonucleotide 5'-CGGTTGCTCTGAGACATTTTTATA-3' (SEQID NO:2), from Gene Tools (all phosphorodiamidate morpholino (PMO))”, the “expression of endogenous Bcl-xL” value in [10] (20 μM morpholino oligonucleotide, scrape delivery, western blot) was “suppression of endogenous Bcl-xL was observed”. In addition, the “cell death by adriamycin plus TRAIL when Bcl-xL is suppressed” value in [10] (even in the presence of z-LEHD-FMK) was “underwent synergistic apoptotic cell death”.
On to “TRAIL: N-terminal histidine tagged recombinant human TRAIL (Thr-95 to Gly-281) from R&D Systems, cross-linked with anti-6x His antibody”, for which the “TRAIL cytotoxicity (active-caspase 3)” value in data set [6] (TRAIL 5, 10, 25 or 50 ng/mL, 4 hours) is “showed cytotoxicity in a dose dependent manner”; in data set [11], “not affected”. Moreover, in [4] (TE2, TE9 and TE12 cell lines, TRAIL cross-linked with anti-6x His antibody, 16 hours), the “TRAIL sensitivity (more than 30% of the cells active-caspase 3 positive)” value is reported as “sensitive to TRAIL”.
In the case of z-IETD-FMK, in [12], the “protection from the killing effect of TRAIL” value was “protect all cells, including cancer cells, from the killing effect of TRAIL”.
